Reference: US5147878A, “Aminoalkoxyphenyl derivatives, process of preparation and compositions containing the same” (Sanofi, priority 1986, dated 1992)
Counter-ions that a name gives are not always drawn.

What was measured:
[1] = tested on: epinephrine-induced increase in blood-pressure (anti-α effect); test: Antiadrenergic properties: anti-α effect (reduction of epinephrine-induced hypertension); type: in vivo; set-up: key to anti-α effect: +: for a reduction < 50%; ++: for a reduction ≥ 50%; +++: for a reduction sub-total (almost complete reduction); conditions: dog
Description: (§1) The object of this test is to determine the capacity of the compounds of the invention for reducing the increase in epinephrine-induced increase in blood-pressure (anti-α effect) and the isoprenaline-induced acceleration in heart rate (anti-β effect), in dogs previously anaesthatized with pentobarbital and atropinized. For each dog, the dose of epinephrine (between 3 and 10 μg/kg) which induced a reproducible increase in the blood-pressure of approximately 133×10^2 Pa and the dose of isoprenaline (1 to 2 μg/kg) which induced a reproducible increase in the heart rate of approximately 70 beats/min. were first determined. The dose of epinephrine and of isoprenaline, determined in this manner, were injected alternately every ten minutes and, after two successive reference responses had been obtained, an amount of the test compound was administered intravenously. The percentage reduction in the hypertension induced by the test compound compared with the reference hypertension previously obtained (approximately 100 mm Hg) was recorded. In both cases, the results of the reduction in blood-pressure or in the heart rate have been expressed as follows: […]

[2] = tested on: isoprenaline-induced acceleration in heart rate (anti-β effect); test: Antiadrenergic properties: anti-β effect (reduction of isoprenaline-induced tachycardia); type: in vivo; set-up: key to anti-β effect: +: for a reduction < 50%; ++: for a reduction ≥ 50%; +++: for a reduction sub-total (almost complete reduction); conditions: dog
Description: as §1, with “the acceleration of the heart rate” for “the hypertension”, “reference tachycardia measured” for “reference hypertension”, “previously” for “previously obtained”, “(approximately 70 beats)” for “(approximately 100 mm Hg)”

isolated rat aorta = test: Calcium inhibitory properties: contractile response to potassium-induced depolarization on isolated rat aorta; set-up: species or system isolated organ, male Wistar rats; conditions: for activity at 1 µM / activity at 0.1 µM / activity at 0.01 µM / activity at 0.001 µM: Rattus norvegicus, 1 h, read-out: % of the maximum contractional effect; for activity at 1 µM: 10^-6 M; for activity at 0.1 µM: 10^-7 M; for activity at 0.01 µM: 10^-8 M; for activity at 0.001 µM: 10^-9 M; for % of the maximum contractional effect: head printed "10^-" (exponent missing; first of three columns before 10^-6 M), 60 min
Excerpt: It is well established that the depolarization of a smooth muscle membrane by potassium renders the latter permeable to extracellular calcium and induces muscle contraction. Consequently, the measurement of the inhibition of the contractile response to depolarization by potassium, or the measurement of a relaxation of the tonic contraction on potassium depolarization, can represent an evaluation of the power of a compound as an inhibitor of the membrane permeability to Ca^++ ions. The technique used was as follows: The aorta was removed from male Wistar rats weighing approximately 300 g, and cut into strips approximately 40 mm long and 3 mm wide. These fragments were placed in a 25-ml isolated organ trough containing a modified Krebs-bicarbonate solution (112 mM NaCl; 5 mM KCl; 25 mM NaHCO3; 1 mM KH2 PO4; 1.2 mM MgSO4; 2.5 mM CaCl2; 11.5 mM glucose, distilled water to 1000 ml) through which a stream of 5-7% carbon dioxide in oxygen was passed, and maintained at 37° C. The preparation was connected to a force microsensor and the contractile response recorded after amplification on a recorder. A tension of 2 g was applied to the preparation. This tension was maintained for 60 minutes in the modified Krebs-bicarbonate solution, and contractions were then induced by replacing the Krebs-bicarbonate solution by a potassium-Krebs solution (17 mM NaCl; 100 mM KCl; 25 mM NaHCO3; 1 mM KH2 PO4; 1.2 mM MgSO4; 2.5 mM CaCl2; 11.5 mM glucose; distilled water to 1000 ml). When the contractile response of the preparation had become reproducible, a given amount of a compound of the invention was introduced into the bath. Sixty minutes later, a new spasm was induced by potassium depolarization. The results obtained on the aorta used in the experiment were then expressed as a percentage of the maximum contractional effect before incubation with the test substance. By way of examples, the results which follow were obtained, the compounds of formula (1) being in the form of the base, hydrochloride or oxalate.

[3] = Canis lupus familiaris, iv, 4.9 mg/kg i.v.

| Structure (SMILES) | activity at 1 µM (isolated rat aorta) | activity at 0.1 µM (isolated rat aorta) | activity at 0.01 µM (isolated rat aorta) | other results |
| --- | --- | --- | --- | --- |
| COc1cc(CCN(C)CCCOc2ccc(S(=O)(=O)c3c(C(C)C)c4ccccc4n3C)cc2)cc(OC)c1 [Ex. 146, 1-methyl-3-isopropyl-2-[4-{3-[N-methyl-N-(3,5-dimethoxy-β-phenethyl)amino]propyloxy}benzenesulphonyl]indole acid oxalate] |  |  |  | anti-α effect ([1]; 0.07 mg/kg i.v.): +++; inhibition in vivo at 0.07 mg/kg ([2]; Canis lupus familiaris, iv, 0.07 mg/kg i.v.): ≥ 50% |
| CCCCN(CCCC)CCCOc1ccc(S(=O)(=O)c2ccccc2)cc1 [Ex. 64, 4-[3-(di-n-butylamino)propyloxy]benzenesulphonylbenzene oxalate] | 32.4% | 85.3% |  | inhibition in vivo at 4.9 mg/kg [1, 3]: < 50%; inhibition in vivo at 4.9 mg/kg [2, 3]: ≥ 50% |
| COc1ccc(CCN(C)CCCOc2ccc(S(=O)(=O)c3c(C(C)C)cc4ccccn34)cc2)cc1OC [Ex. 55, 2-isopropyl-3-[4-{3-[N-methyl-N-(3,4-dimethoxy-β-phenethyl)amino]propyloxy}benzenesulphonyl]indolizine oxalate] |  | 9.5% | 34.1% | activity at 0.001 µM (isolated rat aorta): 68.7%; anti-α effect ([1]; 0.13 mg/kg i.v.): +++; inhibition in vivo at 0.13 mg/kg ([2]; Canis lupus familiaris, iv, 0.13 mg/kg i.v.): ≥ 50% |
| COc1ccc(CCN(C)CC(O)COc2ccc(S(=O)(=O)c3c(C(C)C)cn4ccccc34)cc2)cc1OC (racemic) [Ex. 50, hydrochloride] |  |  |  | anti-α effect ([1]; 0.1 mg/kg i.v.): +++; anti-β effect ([2]; 0.1 mg/kg i.v.): +++ |
| CCCCN(CCCC)CCCOc1ccc(C(=O)c2c(CC)cn3ccccc23)cc1 [Compound F, reference compound] |  |  |  | inhibition in vivo at 10 mg/kg ([2]; Canis lupus familiaris, iv, 10 mg/kg i.v., known compounds): 0% |
| COc1ccc(CN(C)CCCCOc2ccc(S(=O)(=O)c3c(C(C)C)oc4ccccc34)cc2)cc1OC [Ex. 92, 2-Isopropyl-3-[4-{4-[N-methyl-N-(3,4-dimethoxy-benzyl)amino]butyloxy}benzenesulphonyl]benzofuran hemioxalate] | 3.8% | 31.5% | 61% | activity at 0.001 µM (isolated rat aorta): 80.8% |
| COc1ccc(CCN(C)CCCOc2ccc(S(=O)(=O)c3cn[nH]c3C(C)C)cc2)cc1OC [Ex. 100, 4-[4-{3-[N-methyl-N-(3,4-dimethoxy-β-phenethyl)amino]propyloxy}benzenesulphonyl]-5-isopropyl-pyrazole acid oxalate] | 62.5% | 87.6% |  | % of the maximum contractional effect (isolated rat aorta): 15.1% |
| CCCCN(CCCC)CCCOc1ccc(S(=O)(=O)c2ccccc2C(C)C)cc1 [Ex. 115, 2-Isopropyl-1-{4-[3-(di-n-butylamino)propyloxy]benzenesulphonyl}benzene acid oxalate] |  | 43.2% |  | activity at 0.001 µM (isolated rat aorta): 89.1% |
| CCCCN(CCCC)CCCOc1ccc(S(=O)(=O)c2ccccc2CC)cc1 [Ex. 117, 2-Ethyl-1-{4-[3-(di-n-butylamino)propyloxy]benzenesulphonyl}benzene acid oxalate] | 4.2% | 43.4% | 85.1% |  |
| CCc1ccccc1S(=O)(=O)c1ccc(OCCCN(C)CCc2ccc(OC)c(OC)c2)cc1 [Ex. 116, 2-Ethyl-1-[4-{3-[N-methyl-N-(3,4-dimethoxy-β-phenethyl)amino]propyloxy}benzenesulphonyl]benzene acid oxalate] |  | 6% | 66.1% | activity at 0.001 µM (isolated rat aorta): 84.8% |
| CCCCN(CCCC)CCCOc1ccc(S(=O)(=O)c2cn[nH]c2C(C)C)cc1 [Ex. 125, 4-{4-[3-(di-n-butylamino)propyloxy]benzenesulphonyl}-5-isopropyl-pyrazole acid oxalate] | 79.3% | 90.4% |  | % of the maximum contractional effect (isolated rat aorta): 38.6% |
| Cc1cc(S(=O)(=O)c2c(-c3ccccc3)cn3ccccc23)ccc1OCCCNC(C)(C)C [Ex. 25, 2-Phenyl-1-{4-[3-(tert-butylamino)propyloxy]-3-methylbenzenesulphonyl}indolizine hydrochloride] | 67.7% |  |  |  |
| CC(C)c1cn2ccccc2c1S(=O)(=O)c1ccc(OCCCN2CCN(c3ccccc3)CC2)cc1 [Ex. 33, 2-Isopropyl-1-{4-[3-(N-phenylpiperazino)propyloxy]benzenesulphonyl}indolizine] | 24.6% | 57.6% | 87% |  |
| CCCCCN(CCCCC)CCCOc1ccc(S(=O)(=O)c2c(C(C)C)cn3ccccc23)cc1 [Ex. 37, 2-Isopropyl-1-{4-[3-(di-n-pentylamino)propyloxy]-benzenesulphonyl}indolizine hydrochloride] |  | 48.7% | 77.8% |  |
| COc1ccc(CCN(C)CCOc2ccc(S(=O)(=O)c3c(C(C)C)oc4ccccc34)cc2)cc1OC [Ex. 91, 2-Isopropyl-3-[4-{2-[N-methyl-N-(3,4-dimethoxy-β-phenethyl)amino]ethyloxy}benzenesulphonylbenzofuran hemioxalate] |  | 11.1% | 53.9% |  |
| CCCCN(CCCC)CCCOc1ccc(S(=O)(=O)c2c(CC)sc3c2CN(Cc2ccccc2Cl)CC3)cc1 [Ex. 121, 5-(2-chloro-benzyl)-2-ethyl-3-{4-[3-(di-n-butylamino)propyloxy]benzenesulphonyl}-4,5,6,7-tetrahydro-thieno[3,2-c]pyridine dioxalate] | 66.2% | 77.5% | 85.7% |  |
| CC(C)c1c(S(=O)(=O)c2ccc(OCCCNC(C)(C)C)cc2)c2ccccc2n1C [Ex. 112, 1-methyl-2-isopropyl-3-[4-{3-(tert-butylamino)propyloxy}benzenesulphonyl]indole] | 8.1% | 51.7% | 84.5% |  |
| CCCCN(CCCC)CCCOc1ccc(S(=O)(=O)c2ccoc2C(C)C)cc1 [Ex. 78, 2-isopropyl-3-{4-[3-(di-n-butylamino)propyloxy]benzenesulphonyl}furan oxalate] | 4% | 59.4% | 90.3% |  |
| COc1ccc(CCN(C)CCCOc2ccc(S(=O)(=O)c3ccncc3)cc2)cc1OC [Ex. 61, 4-[4-{3-[N-methyl-N-(3,4-dimethoxy-βphenethyl)amino]propyloxy}benzenesulphonyl]pyridine oxalate] | 70.7% | 88% |  | % of the maximum contractional effect (isolated rat aorta): 14% |
| CCCCN(CCCC)CCCOc1ccc(S(=O)(=O)c2c(C(C)C)[nH]c3ccccc23)cc1 [Ex. 106, 2-Isopropyl-3-{4-[3-(di-n-butylamino)propyloxy]benzenesulphonyl}indole acid] | 4.9% | 37.4% | 66% |  |
| COc1ccc(CCN(C)CCCCOc2ccc(S(=O)(=O)c3c(C(C)C)oc4ccccc34)cc2)cc1OC [Ex. 93, 2-Isopropyl-3-[4-{4-[N-methyl-N-(3,4-dimethoxy-β-phenethyl)amino]butyloxy}benzenesulphonyl]benzofuran acid oxalate] |  | 33.6% | 53.1% |  |
